# Patent publication US11993640B2, “Treating inflammatory lung disease” (United States Government as represented by the Department …, priority 2019, dated 2024)
# Non-standard residues stand in square brackets, D forms with d. Residues, ends and D or L forms follow the SMILES beside them. *: point of attachment. Phe(F5) = N[C@@H](Cc1c(F)c(F)c(F)c(F)c1F)C(=O)O; hArg = N=C(N)NCCCC[C@H](N)C(=O)O; 12Ado = NCCCCCCCCCCCC(=O)O; Nle = CCCC[C@H](N)C(=O)O; Orn = NCCC[C@H](N)C(=O)O; Abu = CC[C@H](N)C(=O)O; PhAc = O=C(Cc1ccccc1)*
# What was measured:
# HCC1806 cells = assay: In vitro cell viability, breast cancer HCC1806; type: cell-based, human; settings: 5 μM, 72 h
# Protocol: The inhibitory effects of the various synthesized GHRH antagonists were tested in cell proliferation assays in various human cancer cell lines including stomach cancer (KATOIII, N87), colon cancer (HT-29), urothelial cancer (J82, RT4), pancreatic cancer (PANC-1, CFPAC-1), prostatic cancer (PC3), breast cancer (MX-1, HCC1806), ovarian cancer (SK-OV-3, OVCAR-3) and lung cancer (HCC827, H460).
# Cell culture. Human cancer cell lines including pancreatic (PANC-1 and CFPAC-1), lung (HCC827 and H460), stomach (NCI-N87 and KATOIII), urothelial (J82, RT4), prostatic (PC3), breast (MX-1 and HCC 1806), colorectal (HT-29), and ovarian (SK-OV-3 and OVCAR-3) were obtained from the American Type Culture Collection (ATCC) and cultured at 37° C. in a humidified 95% air/5% CO2 atmosphere in the medium recommended by ATCC.
# In vitro cell viability. Cell viability was analyzed as follows: cancer cells including pancreatic (PANC-1 and CFPAC-1), lung (HCC827 and H460), stomach (NCI-N87 and KATOIII), urothelial (J82, RT4), prostatic (PC3) and breast (MX-1 and HCC 1806), colorectal (HT-29) and ovarian (SK-OV-3 and OVCAR-3) were grown on 96 well plates to ˜60% confluence, the cells were starved for 24 h in culture medium containing 0.5% FBS. Cells were then treated with GHRH antagonists MIA602 AVR compounds at concentrations of 1, 2.5 or 5 μM, or vehicle (0.1% DMSO) in quintuplicates for 72 hours. The medium was replaced every 48 hours. Cell viability was measured using CellTiter 96 aqueous one solution kit (Promega). Inhibitory effects of tested AVR compounds in comparison to that of MIA602 are presented as inhibitory potency.
# Inhibitory effects of selected AVR compounds in comparison to that of MIA602 are presented as inhibitory potency (e.g., percentage of inhibition). […] The cell lines tested including lung cancer HCC827 (FIG. 2A), pancreatic cancer CFPAC-1 (FIG. 2B), stomach cancer N87 (FIG. 2C), colon cancer HT-29 (FIG. 2D), breast cancers MX-1 and HCC1806 (FIGS. 2E, F). Based on the results of cell proliferation assay after cancer cells were treated with antagonist at concentration of 5 μM for 72H, the relative inhibitory potency of AVR antagonists in comparison to MIA-602 is summarized in Table 3 A and B. Over 60 AVR compounds were tested in 12 cancer cell lines.
# Based on the results of cell proliferation assay after cancer cells were treated with antagonist at concentration of 5 µM for 72H, * at concentration of 2 µM for 72 H.
# [1] = test system: C57Bl/6J mice treated with bleomycin; assay: Bleomycin lung injury model, lung histopathology scores (inflammation, modified Ashcroft fibrosis); type: in vivo, mouse
# Protocol: Experimental animals. 8-week old C57Bl/6J male mice (The Jackson Laboratory, Bar Harbor, ME) were used in these experiments. Mice weighed about 26 grams at the start. Mice were randomly allocated to the experimental groups and housed in identical filter top cages in a ventilated rack. Mice were exposed to a 12-hour light/dark cycle and had free access to standard laboratory chow and water.
# Bleomycin and GHRH-R antagonist treatment. Mice were treated with 0.8 units of bleomycin (Bleomycin for Injection USP, Hospira, Lake Forest, IL) intraperitoneally (IP) on days 1, 3, 7, 10, 14 and 21 (Collins S, Chan-Li Y, Oh M, Vigeland C, Limjunyawong N, Mitzner W, Powell J D, Horton M R (2016). JCI Insight 1(4):1-13). Mice (randomly assigned) were simultaneously treated subcutaneously (sc) with MIA-602 (5 μg/day) or its vehicle (100 μL/day). MIA-602 was dissolved in DMSO (ACS grade; Sigma-Aldrich) and diluted 1:500 in normal saline for daily sc injection on days 0-21.
# Tissue preparations. Mice were killed by CO2 inhalation before any treatment, or on days 14 or 28 for micro-CT scans of lungs and harvesting of lung tissue (Vande Velde G, Poelmans J, De Langhe E, Hillen A, Vanoirbeek J, Himmelreich U, Lories R (2016). Dis Model Mech 9:91). The right mainstem bronchus was ligated and the right lung removed and frozen at −80° C. for hydroxyproline (HP) assays. The left lung was filled with 10% buffered formalin at ˜25 cm H2O pressure, the bronchus ligated, and the lung fixed in formalin. Fixed lungs were embedded in wax and 5 μm sections stained with hematoxylin and eosin (H&E) or Masson's trichrome stain.
# Lung histopathology. Fibrosis was quantified in trichrome-stained sections using a modification of the Ashcroft score that describes grades of fibrosis. Inflammation in lung tissue was quantified in H&E stained sections (Hubner R, Gitter W, El Mokhtari N, Mathiak M, Both M, Bolte H, Freitag-Wolf S, Bewig B (2008). Biotechniques 44:507-517).
# Data analysis. Data are reported as arithmetic means±SEM or SD as indicated. […]
# [2] = day 28, bleomycin-treated mice, MIA-602 5 μg/day sc days 1-21
structure (smiles),measurement,setting,value
"CCCC[C@H](NC(=O)[C@@H](NC(=O)[C@H](CC(=O)O)NC(=O)[C@H](CCC(N)=O)NC(=O)[C@H](CC(C)C)NC(=O)[C@H](CC(C)C)NC(=O)[C@H](CCCN)NC(=O)[C@H](Cc1c[nH]cn1)NC(=O)[C@H](C)NC(=O)[C@H](CO)NC(=O)[C@H](CC(C)C)NC(=O)[C@H](CCC(N)=O)NC(=O)[C@H](CC)NC(=O)[C@H](CC(C)C)NC(=O)[C@@H](NC(=O)[C@H](CCCN)NC(=O)[C@H](Cc1c[nH]cn1)NC(=O)[C@H](Cc1ccc(OC)cc1)NC(=O)[C@H](CCCCNC(=N)N)NC(=O)[C@H](C)NC(=O)[C@@H](NC(=O)[C@H](Cc1c(F)c(F)c(F)c(F)c1F)NC(=O)[C@@H](NC(=O)[C@H](C)NC(=O)[C@H](CC(=O)O)NC(=O)[C@@H](CCCNC(=N)N)NC(=O)[C@H](Cc1ccc(O)cc1)NC(=O)CCCCCCCCCCCNC(=O)Cc1ccccc1)[C@@H](C)CC)[C@@H](C)O)C(C)C)[C@@H](C)CC)C(=O)N[C@H](CCCNC(=N)N)C(=O)N[C@@H](CCCCNC(=N)N)C(N)=O [MIA-602, PhAC-Ada, Tyr D-Arg, Asp, Ala, Ile, 5FPhe, Thr, Ala, Har, Tyr(Me), His, Orn, Val, Leu, Abu, Gin, Leu, Ser, Ala, His, Orn, Leu, Leu, Gin, Asp, Ile, Nle, D-Arg, Har NH2, reference compound] ({PhAc-12Ado}-Y[dR]DAI[Phe(F5)]TA[hArg]Y(Me)H[Orn]VL[Abu]QLSAH[Orn]LLQDI[Nle][dR][hArg]-NH2)","In vitro relative inhibitory potency in comparison to MIA-602, HCC-1806",HCC1806 cells; Table 3B,1
same,"Relative inhibitory potency, Breast HCC1806","HCC1806 cells; relative to MIA602 = 1, Table 3A",1
same,"Lung inflammatory changes and fibrosis, histopathology","[1]; bleomycin-treated mice, days 14 and 28",Both inflammatory changes and fibrosis were decreased
same,"Lung fibrosis histopathologic score, 5%-95% CI",[1]; [2],1.1-2.9
same,"Lung fibrosis histopathologic score, range",[1]; [2],1.0-3.0
